Laboratory results reported in patent US6063926A, “Substituted oximes as neurokinin antagonists” (Schering Corporation, priority 1998, dated 2000).
Like-named read-outs stand apart in the source and are kept apart here.

Tests used:
NK2 receptor = target: T1, NK2 receptor (Homo sapiens, UniProt P21452); test: neurokinin receptor binding assay, NK2 (Ki)
T1 sequence (P21452 1-398): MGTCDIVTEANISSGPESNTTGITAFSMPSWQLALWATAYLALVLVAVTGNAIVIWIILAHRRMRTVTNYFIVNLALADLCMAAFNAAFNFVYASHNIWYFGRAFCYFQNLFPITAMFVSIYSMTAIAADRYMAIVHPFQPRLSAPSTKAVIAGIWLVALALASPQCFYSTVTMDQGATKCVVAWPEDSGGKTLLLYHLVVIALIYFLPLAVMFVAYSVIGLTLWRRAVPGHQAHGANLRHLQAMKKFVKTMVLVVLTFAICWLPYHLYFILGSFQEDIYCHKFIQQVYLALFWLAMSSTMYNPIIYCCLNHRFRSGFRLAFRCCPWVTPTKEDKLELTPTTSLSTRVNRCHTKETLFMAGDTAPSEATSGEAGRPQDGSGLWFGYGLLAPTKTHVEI
Excerpt: (§1) The in vitro and in vivo activity of the compounds of formula I can be determined by various procedures known in the art, such as a test for their ability to inhibit the activity of the NK1 agonist Substance P, an isolated hamster trachea NK2 assay, a test of the effect of NK1 antagonists on Substance P-induced airway microvascular leakage, measurement of NK2 activity in vivo in guinea pigs, measurement of bronchoconstriction due to NKA, and neurokinin receptor binding assay(s). Typical procedures are described in WO96/34857, published Nov. 7, 1996. NK3 activity is determined by following a procedure similar to that described in the literature, e.g., Molecular Pharmacol., 48 (1995), p. 711-716.
(§2) % Inhibition is the difference between the percent of maximum specific binding (MSB) and 100%. The percent of MSB is defined by the following equation, wherein "dpm" is disintegrations per minute: [formula]
(§3) Using the test procedures described above, the following 35 data (Ki) were obtained for exemplified compounds: […]

NK1 receptor = NK1 receptor (Homo sapiens, UniProt P25103); test: neurokinin receptor binding assay, NK1 (Ki)
Excerpt: as §1, §2, §3

Sequence of NK1 receptor (P25103 whole entry): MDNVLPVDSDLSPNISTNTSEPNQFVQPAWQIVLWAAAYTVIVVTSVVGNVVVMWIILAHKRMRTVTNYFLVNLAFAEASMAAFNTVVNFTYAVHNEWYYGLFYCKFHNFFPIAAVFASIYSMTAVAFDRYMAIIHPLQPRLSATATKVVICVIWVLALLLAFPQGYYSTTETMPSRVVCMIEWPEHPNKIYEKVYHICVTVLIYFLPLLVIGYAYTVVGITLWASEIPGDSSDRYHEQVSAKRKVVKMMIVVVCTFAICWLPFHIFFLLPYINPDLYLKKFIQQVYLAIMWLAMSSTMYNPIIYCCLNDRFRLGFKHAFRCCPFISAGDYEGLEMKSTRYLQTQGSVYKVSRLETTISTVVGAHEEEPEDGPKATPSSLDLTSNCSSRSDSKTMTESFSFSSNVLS

Row | SMILES | Ki (NK2 receptor; read-out: Ki (NK2)) | Ki (NK1 receptor; read-out: Ki (NK1)) | Ki (NK2 receptor; compound of Example 11, amide disclosed in U.S. Pat. No. 5,696,267, read-out: Ki for the NK2 receptor (unit inferred)) | Ki (NK1 receptor; compound of Example 11, amide disclosed in U.S. Pat. No. 5,696,267, read-out: Ki for the NK1 receptor (unit inferred))
1 | CON=C(CN(C)C(=O)c1cc(C)cc(Cl)c1)C(CCN1CCC(N2CCCCC2=O)CC1)c1ccc(Cl)c(Cl)c1 (centres unmarked) [Example 26] | 1.3 nM | 1 nM | – | –
2 | CON=C(CNC(=O)c1cc(Cl)cc(Cl)c1)C(CCN1CCC(N2CCC[C@H](CC(N)=O)C2=O)CC1)c1ccc(Cl)c(Cl)c1 (some centres unmarked) [Example 29C] | 0.7 nM | 2.6 nM | – | –
3 | CN(C)C(=O)CC1CCCN(C2CCN(CCC(C(CN(C)C(=O)c3cc(Cl)cc(Cl)c3)=NO)c3ccc(Cl)c(Cl)c3)CC2)C1=O (centres unmarked) [Example 14B] | 0.8 nM | 0.3 nM | – | –
4 | COc1cc(C(=O)N(C)CC(=NOCC(N)=NO)C(CCN2CCC(O)(c3ccccc3)CC2)c2ccc(Cl)c(Cl)c2)cc(OC)c1OC (centres unmarked) [Example 23] | 0.5 nM | 0.8 nM | – | –
5 | COc1cc(C(=O)N(C)CC(=NOCC(N)=NO)C(CCN2CCC(N3CCCCC3=O)CC2)c2ccc(Cl)c(Cl)c2)cc(OC)c1C (centres unmarked) [Example 21B] | 0.5 nM | 6 nM | – | –
6 | CON=C(CN(C)C(=O)c1cc(Cl)cc(Cl)c1)C(CCN1CCC(N2CCCC(CC(=O)N3CC(O)C3)C2=O)CC1)c1ccc(Cl)c(Cl)c1 (centres unmarked) [Example 12E] | 0.2 nM | 0.4 nM | – | –
7 | Cc1cc(C)cc(C(=O)N(C)CC(=NOCC(N)=NO)C(CCN2CCC(N3CCCC(CC(=O)N(C)C)C3=O)CC2)c2ccc(Cl)c(Cl)c2)c1 (centres unmarked) [Example 19C] | 0.2 nM | 0.2 nM | – | –
8 | CNC(=O)C[C@H]1CCCN(C2CC[N+]([O-])(CC[C@@H](C(CN(C)C(=O)c3cc(Cl)cc(Cl)c3)=NOC)c3ccc(Cl)c(Cl)c3)CC2)C1=O (some centres unmarked) [Example 13H] | 0.4 nM | 2.6 nM | – | –
9 | CN(CC(=NO)C(CCN1CCC(N2CCCCC2=O)CC1)c1ccc(Cl)c(Cl)c1)C(=O)c1cc(Cl)cc(Cl)c1 (centres unmarked) [Example 17A] | 3 nM | 0.5 nM | – | –
10 | Cc1cc(C)cc(C(=O)N(C)CC(=NOCC(N)=NO)C(CCN2CCC(N3CCCCC3=O)CC2)c2ccc(Cl)c(Cl)c2)c1 (centres unmarked) [Example 18E] | 0.4 nM | 0.4 nM | – | –
11 | CN(CC(=NOCC(N)=NO)C(CCN1CCC(N2CCCCC2=O)CC1)c1ccc(Cl)c(Cl)c1)C(=O)c1cc(Cl)cc(Cl)c1 (centres unmarked) [Example 17E] | 0.7 nM | 0.7 nM | – | –
12 | CONC(=O)CON=C(CN(C)C(=O)c1cc(C)cc(C)c1)C(CCN1CCC(N2CCCC(CC(=O)N(C)C)C2=O)CC1)c1ccc(Cl)c(Cl)c1 (centres unmarked) [Example 19E] | 1.8 nM | 0.6 nM | – | –
13 | CON=C(N)CON=C(CN(C)C(=O)c1cc(OC)c(OC)c(OC)c1)C(CCN1CCC(O)(c2ccccc2)CC1)c1ccc(Cl)c(Cl)c1 (centres unmarked) [Example 37] | 0.7 nM | 0.7 nM | – | –
14 | CON=C(CN(C)C(=O)c1cc(Cl)cc(Cl)c1)C(CCN1CCC(N2CCCC(CC(=O)N3CCOCC3)C2=O)CC1)c1ccc(Cl)c(Cl)c1 (centres unmarked) [Example 12K] | 0.5 nM | 0.9 nM | – | –
15 | CON=C(CN(C)C(=O)c1cc(C)cc(Cl)c1)C(CCN1CCC(N2CCCC(CC(=O)N(C)C)C2=O)CC1)c1ccc(Cl)c(Cl)c1 (centres unmarked) [Example 27] | 1.2 nM | 0.7 nM | – | –
16 | Cc1cc(C)cc(C(=O)N(C)CC(=NOCC(=O)N2CCSCC2)C(CCN2CCC(N3CCCCC3=O)CC2)c2ccc(Cl)c(Cl)c2)c1 (centres unmarked) [Example 18J] | 3.4 nM | 0.3 nM | – | –
17 | CON=C(CN(C)C(=O)c1cc(Cl)cc(Cl)c1)C(CCN1CCC(N2CCCC(CC(=O)N3CCC(O)CC3)C2=O)CC1)c1ccc(Cl)c(Cl)c1 (centres unmarked) [Example 12L] | 0.9 nM | 0.5 nM | – | –
18 | CN(CC(=NO)C(CCN1CCC(N2CCCC(CC(N)=O)C2=O)CC1)c1ccc(Cl)c(Cl)c1)C(=O)c1cc(Cl)cc(Cl)c1 (centres unmarked) [Example 16A] | 0.7 nM | 0.2 nM | – | –
19 | Cc1cc(C)cc(C(=O)N(C)CC(=NOCC(=O)Nc2nncs2)C(CCN2CCC(N3CCCC(CC(=O)N(C)C)C3=O)CC2)c2ccc(Cl)c(Cl)c2)c1 (centres unmarked) [Example 19D] | 1.4 nM | 0.9 nM | – | –
20 | CON=C(CN(C)C(=O)c1cc(C)cc(C)c1)C(CCN1CCC(N2CCCCC2=O)CC1)c1ccc(Cl)c(Cl)c1 (centres unmarked) [Example 18B] | 0.4 nM | 0.8 nM | – | –
21 | CNC(=O)CC1CCCN(C2CCN(CCC(C(CNC(=O)c3cc(Cl)cc(Cl)c3)=NOC)c3ccc(Cl)c(Cl)c3)CC2)C1=O (centres unmarked) [Example 29B] | 1.3 nM | 5.2 nM | – | –
22 | CON=C(CN(C)C(=O)c1cc(Cl)cc(Cl)c1)C(CCN1CCC(c2ccccc2[S+](C)[O-])CC1)c1ccc(Cl)c(Cl)c1 (centres unmarked) [Example 36] | 1 nM | 0.8 nM | – | –
23 | CON=C(CN(C)C(=O)c1cc(Cl)cc(Cl)c1)[C@H](CCN1CCC(N2CCCCC2=O)CC1)c1ccc(Cl)c(Cl)c1 [Example 13D] | 0.7 nM | 1.1 nM | – | –
24 | CN(CC(=NOCF)C(CCN1CCC(N2CCCCC2=O)CC1)c1ccc(Cl)c(Cl)c1)C(=O)c1cc(Cl)cc(Cl)c1 (centres unmarked) [Example 17S] | 0.8 nM | 0.8 nM | – | –
25 | CO/N=C(\CN(C)C(=O)c1cc(C(F)(F)F)cc(C(F)(F)F)c1)C(CCN1CCC(O)(c2ccccc2)CC1)c1ccc(Cl)c(Cl)c1 (centres unmarked) [Example 11] | – | – | 9.2 nM | 3.6 nM
26 | CON=C(CN(C)C(=O)c1cc(Cl)cc(Cl)c1)[C@H](CC[N+]1([O-])CCC(N2CCCCC2=O)CC1)c1ccc(Cl)c(Cl)c1 (some centres unmarked) [Example 13G] | 0.4 nM | 1.5 nM | – | –
27 | CNC(=O)CC1CCCN(C2CCN(CCC(C(CN(C)C(=O)c3cc(C)cc(C)c3)=NOC)c3ccc(Cl)c(Cl)c3)CC2)C1=O (centres unmarked) [Example 35] | 0.3 nM | 0.6 nM | – | –

Now from value to compound, other results behind:

Row | Ki (NK2 receptor; read-out: Ki (NK2)) | Ki (NK1 receptor; read-out: Ki (NK1)) | SMILES | Ki (NK2 receptor; compound of Example 11, amide disclosed in U.S. Pat. No. 5,696,267, read-out: Ki for the NK2 receptor (unit inferred)) | Ki (NK1 receptor; compound of Example 11, amide disclosed in U.S. Pat. No. 5,696,267, read-out: Ki for the NK1 receptor (unit inferred))
28 | 0.4 nM | 0.2 nM | CNC(=O)CC1CCCN(C2CCN(CCC(C(CN(C)C(=O)c3cc(Cl)cc(Cl)c3)=NOCCCS(=O)(=O)O)c3ccc(Cl)c(Cl)c3)CC2)C1=O (centres unmarked) [Example 15H] | – | –
29 | 1 nM | 0.8 nM | CNC(=O)CC1CCCN(C2CCN(CCC(C(CN(C)C(=O)c3cc(Cl)cc(Cl)c3)=NOCC(=O)NCC#N)c3ccc(Cl)c(Cl)c3)CC2)C1=O (centres unmarked) [Example 15I] | – | –
30 | 0.5 nM | 0.4 nM | CNC(=O)CC1CCCN(C2CCN(CCC(C(CN(C)C(=O)c3cc(Cl)cc(Cl)c3)=NOCC(N)=O)c3ccc(Cl)c(Cl)c3)CC2)C1=O (centres unmarked) [Example 15D] | – | –
31 | 1.3 nM | 0.9 nM | CNC(=O)CC1CCCN(C2CCN(CCC(C(CN(C)C(=O)c3cc(Cl)cc(Cl)c3)=NOCC(=O)Nc3nncs3)c3ccc(Cl)c(Cl)c3)CC2)C1=O (centres unmarked) [Example 15G] | – | –
32 | 0.4 nM | 0.2 nM | CON=C(N)CON=C(CN(C)C(=O)c1cc(Cl)cc(Cl)c1)C(CCN1CCC(N2CCCC(CC(=O)N(C)C)C2=O)CC1)c1ccc(Cl)c(Cl)c1 (centres unmarked) [Example 14E] | – | –
33 | 0.6 nM | 0.4 nM | CON=C(CN(C)C(=O)c1cc(Cl)cc(Cl)c1)[C@H](CCN1CCC(N2CCC[C@H](CC(=O)O)C2=O)CC1)c1ccc(Cl)c(Cl)c1 [Example 13E] | – | –
34 | 4.3 nM | 0.7 nM | CNC(=O)CC1CCCN(C2CCN(CCC(C(CN(C)C(=O)c3cc(Cl)cc(Cl)c3)=NOCC(=O)NCS(=O)(=O)O)c3ccc(Cl)c(Cl)c3)CC2)C1=O (centres unmarked) [Example 15J] | – | –
35 | 0.8 nM | 0.4 nM | CNC(=O)CC1CCCN(C2CCN(CCC(C(CN(C)C(=O)c3cc(Cl)cc(Cl)c3)=NOCC(N)=NO)c3ccc(Cl)c(Cl)c3)CC2)C1=O (centres unmarked) [Example 15F] | – | –
36 | 1 nM | 0.5 nM | CNC(=O)CON=C(CN(C)C(=O)c1cc(Cl)cc(Cl)c1)C(CCN1CCC(N2CCCC(CC(=O)NC)C2=O)CC1)c1ccc(Cl)c(Cl)c1 (centres unmarked) [Example 15E] | – | –
37 | 1.4 nM | 1 nM | CCON=C(CN(C)C(=O)c1cc(Cl)cc(Cl)c1)C(CCN1CCC(N2CCCC(CC(=O)NC)C2=O)CC1)c1ccc(Cl)c(Cl)c1 (centres unmarked) [Example 15L] | – | –
38 | 0.3 nM | 0.2 nM | CNC(=O)CC1CCCN(C2CCN(CCC(C(CN(C)C(=O)c3cc(Cl)cc(Cl)c3)=NOCC(N)=NOC)c3ccc(Cl)c(Cl)c3)CC2)C1=O (centres unmarked) [Example 15M] | – | –
39 | 0.3 nM | 0.9 nM | CNC(=O)C[C@H]1CCCN(C2CCN(CC[C@@H](C(CN(C)C(=O)c3cc(Cl)cc(Cl)c3)=NOC)c3ccc(Cl)c(Cl)c3)CC2)C1=O [Example 13B] | – | –
40 | 0.2 nM | 0.4 nM | CON=C(CN(C)C(=O)c1cc(Cl)cc(Cl)c1)[C@H](CCN1CCC(N2CCC[C@H](CC(N)=O)C2=O)CC1)c1ccc(Cl)c(Cl)c1 [Example 13C] | – | –
41 | 0.2 nM | 0.8 nM | CON=C(CN(C)C(=O)c1cc(Cl)cc(Cl)c1)[C@H](CCN1CCC(N2CCC[C@H](CC(=O)N(C)C)C2=O)CC1)c1ccc(Cl)c(Cl)c1 [Example 13A] | – | –
42 | 0.7 nM | 0.2 nM | CNC(=O)CC1CCCN(C2CCN(CCC(C(CN(C)C(=O)c3cc(Cl)cc(Cl)c3)=NO)c3ccc(Cl)c(Cl)c3)CC2)C1=O (centres unmarked) [Example 15A] | – | –
43 | 0.2 nM | 0.3 nM | CN(C)C(=O)CC1CCCN(C2CCN(CCC(C(CN(C)C(=O)c3cc(Cl)cc(Cl)c3)=NOCC(N)=NO)c3ccc(Cl)c(Cl)c3)CC2)C1=O (centres unmarked) [Example 14D] | – | –
